Assay results taken from BindingDB's records for doi:10.1016/j.bmcl.2004.10.092 (F. Hoffmann-La Roche, 2005).

Assays:
Assay in all cases: Serine Protease Inhibition Assay
Coagulation factor X = Coagulation factor X (Homo sapiens, UniProt P00742)
Protocol: (§1) The enzyme reactions were initiated by the addition of substrate, and the color developed from the release of p-nitroanilide from each chromogenic substrate was monitored continuously for 5 min at 405 nm on a microtiter plate reader. […] The apparent Ki values were then calculated according to the Cheng-Prusoff equation: Ki = IC50/1 + [S]/Km.

Prothrombin = Prothrombin (Homo sapiens, UniProt P00734)
Protocol: as §1

Serine protease 1 = biological target: T1, Serine protease 1 (Bos taurus, UniProt P00760)
T1 sequence (P00760 whole entry): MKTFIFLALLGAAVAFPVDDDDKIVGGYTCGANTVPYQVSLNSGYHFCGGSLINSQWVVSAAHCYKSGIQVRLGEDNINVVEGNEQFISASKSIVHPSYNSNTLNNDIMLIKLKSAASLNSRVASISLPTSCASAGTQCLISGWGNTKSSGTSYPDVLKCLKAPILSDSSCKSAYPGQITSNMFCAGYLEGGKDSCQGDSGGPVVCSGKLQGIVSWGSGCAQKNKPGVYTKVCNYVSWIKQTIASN
Protocol: as §1

Coagulation factor VII = biological target: T2, Coagulation factor VII (Homo sapiens, UniProt P08709); conditions: pH 7.8; 22 °C
T2 sequence (P08709 whole entry): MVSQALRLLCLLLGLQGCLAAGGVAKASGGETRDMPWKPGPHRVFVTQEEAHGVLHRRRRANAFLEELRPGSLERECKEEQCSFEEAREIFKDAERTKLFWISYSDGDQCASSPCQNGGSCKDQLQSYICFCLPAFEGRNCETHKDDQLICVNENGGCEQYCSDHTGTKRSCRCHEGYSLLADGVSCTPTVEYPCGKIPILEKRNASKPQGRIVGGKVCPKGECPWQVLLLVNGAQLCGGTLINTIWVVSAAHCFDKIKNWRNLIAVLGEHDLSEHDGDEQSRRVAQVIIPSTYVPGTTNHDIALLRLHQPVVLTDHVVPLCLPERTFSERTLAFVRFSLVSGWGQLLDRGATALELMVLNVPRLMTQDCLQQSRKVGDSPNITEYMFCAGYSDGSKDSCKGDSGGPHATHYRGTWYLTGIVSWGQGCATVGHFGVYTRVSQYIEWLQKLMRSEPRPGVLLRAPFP
Protocol: as §1

Coagulation factor X, sequence (P00742 41-179 limits assumed): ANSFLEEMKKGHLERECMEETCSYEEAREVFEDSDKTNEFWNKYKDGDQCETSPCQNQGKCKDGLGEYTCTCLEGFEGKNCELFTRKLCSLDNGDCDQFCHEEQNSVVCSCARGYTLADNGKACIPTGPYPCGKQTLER
Coagulation factor X, sequence (P00742 235-488 limits assumed): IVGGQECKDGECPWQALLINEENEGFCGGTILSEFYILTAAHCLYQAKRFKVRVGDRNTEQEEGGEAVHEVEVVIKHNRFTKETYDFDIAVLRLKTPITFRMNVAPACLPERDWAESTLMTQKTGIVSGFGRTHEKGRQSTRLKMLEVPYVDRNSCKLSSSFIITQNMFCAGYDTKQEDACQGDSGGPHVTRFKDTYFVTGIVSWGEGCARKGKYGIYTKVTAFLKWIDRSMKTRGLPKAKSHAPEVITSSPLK

Ki (Coagulation factor X) [µM] | Ki (Prothrombin) [µM] | Ki (Serine protease 1) [nM] | Ki (Coagulation factor VII) [nM] | Compound
12.4 | 0.54 | 50 |  | COc1cc(C(Nc2ccc(C(=N)N)cc2)C(=O)N[C@H](C(=O)O)c2ccccc2)c(S(=O)(=O)c2ccccc2)cc1OCc1ccccc1 (some centres not stated) [phenylglycine amide compound 10]
19 | 6.4 | 80 | 7 | COc1cc(C(Nc2ccc(C(=N)N)cc2)C(=O)N[C@H](C(=O)O)c2ccccc2)c(C(=O)Cc2ccccc2)cc1OCc1ccccc1 (stereo partly drawn) [(2S)-2-{2-[4-(benzyloxy)-5-methoxy-2-(2-phenylacetyl)phenyl]-2-[(4-carbamimidoylphenyl)amino]acetamido}-2-phenylacetic acid]
